1 compound from ChEMBL document CHEMBL1136153, “2-oxoglutarate analogue inhibitors of HIF prolyl hydroxylase” (Bioorg Med Chem Lett, 2003) can be followed below.

SMILES strings stand for the structures.

The nature of the assay: Inhibitory concentration against oxoglutarate oxygenase was determined.

On to `O=C(O)CCC(S)C(=O)O` (stereo unspecified), for which the IC50 amounted to 120 µM.
